Where a name gives a salt, the structure may show the parent alone.
Tests used:
5-HT3 receptors = target: T1, 5-HT3 receptors (Mus musculus, UniProt P23979); experiment: Bezold-Jarisch assay in vivo: inhibition of serotonin induced bradycardia; details: read-out: % Inhibition @ dose of test substance (p.o.); for inhibition at 1 mg/kg: 1 mg/kg p.o.; for inhibition at 1 mg/kg / inhibition at 3 mg/kg: 5-HT (0.1 mg/kg IV)-induced bradycardia 60 min later; for inhibition at 3 mg/kg: 3 mg/kg p.o.
T1 construct: from tissue; host or cells: whole animal: male or female CD-1(Crl.) mice
T1 sequence (P23979 24-489): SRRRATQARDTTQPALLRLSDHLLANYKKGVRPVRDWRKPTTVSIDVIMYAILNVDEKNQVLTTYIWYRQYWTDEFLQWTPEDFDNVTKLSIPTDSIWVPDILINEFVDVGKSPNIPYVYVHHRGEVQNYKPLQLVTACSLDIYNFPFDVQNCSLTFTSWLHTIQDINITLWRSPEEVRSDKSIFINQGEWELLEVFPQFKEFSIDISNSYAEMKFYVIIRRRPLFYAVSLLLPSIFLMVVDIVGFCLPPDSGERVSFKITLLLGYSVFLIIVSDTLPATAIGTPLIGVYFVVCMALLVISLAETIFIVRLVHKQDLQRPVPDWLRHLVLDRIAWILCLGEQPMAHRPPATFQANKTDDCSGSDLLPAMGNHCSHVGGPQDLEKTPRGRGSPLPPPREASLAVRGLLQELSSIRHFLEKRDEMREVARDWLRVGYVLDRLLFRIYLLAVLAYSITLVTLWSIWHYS
Experimental: Bezold-Jarisch Assay in vivo. […] Arch. Int. Pharmacodyn. 277: 235-252, 1985]. Test substances and vehicle [2% Tween 80] were each administered orally (0.3 to 3 mg/kg) to a group of 5 male or female CD-1(Crl.) mice each weighing 24±2 g. A dosing volume of 10 mL/kg was used. Sixty minutes later, 5-HT (0.1 mg/kg IV)-induced bradycardia was recorded in urethane (2225-2500 mg/kg IP, given 10 minutes before 5-HT)-anesthetized animals.
In vivo 5-HT3 Antagonism in the mouse (Bradycardia Reflex)

5-HT3 [1] = target: T2, 5-HT3 (Homo sapiens, UniProt P46098); experiment: Compound affinity for the human 5-HT3 receptor (Assay B), SPA radioligand binding with [9-methyl-3H]BRL-43694; parameters: purchased Perkin Elmer
T2 sequence (P46098 24-478): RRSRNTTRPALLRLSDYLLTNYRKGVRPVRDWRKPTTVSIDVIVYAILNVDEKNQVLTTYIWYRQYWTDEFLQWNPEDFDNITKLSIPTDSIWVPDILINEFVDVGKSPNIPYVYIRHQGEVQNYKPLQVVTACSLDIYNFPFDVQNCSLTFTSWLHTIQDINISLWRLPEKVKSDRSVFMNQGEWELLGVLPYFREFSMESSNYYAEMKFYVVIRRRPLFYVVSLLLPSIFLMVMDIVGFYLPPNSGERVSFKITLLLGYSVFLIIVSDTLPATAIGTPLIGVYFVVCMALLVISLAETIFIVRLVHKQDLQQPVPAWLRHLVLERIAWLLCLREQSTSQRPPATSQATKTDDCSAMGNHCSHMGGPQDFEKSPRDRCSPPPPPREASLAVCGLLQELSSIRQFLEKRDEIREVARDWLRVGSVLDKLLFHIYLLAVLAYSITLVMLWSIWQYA
Outline: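 Ten competitor concentrations in duplicate; specific binding (total minus nonspecific) fitted for IC50, converted to Ki by Cheng-Prusoff.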

5-HT3 [2] = target: T2, 5-HT3; experiment: Compound affinity for the human 5-HT3 receptor (Assay A), [3H]-GR65630 radioligand binding; parameters: host or cells: N1E-155 cell lines (so in the source); details: annotated (A): Assay A
Experimental: Compound Affinity for the human 5-HT3 Receptor (Assay A)
Compounds were tested by MDS Pharma Services—Taiwan Ltd., 158 Li-The Road, Peitou, Taipei, Taiwan 112 R.O.C. In order to evaluate the relative affinity of the various compounds for the human 5-HT3 receptor, N1E-155 cell lines were developed to express the target protein. For binding, these cells were homogenized, centrifuged and washed with buffer (20 mM HEPES, 150 mM NaCl, pH 7.4) then suspended in 0.5 mL of buffer and [3H]-GR65630 added at a concentration of 3.5×10^-10 M. An initial single concentration of 10^-7 M of the test compound was then added. Incubation was carried out at room temperature for 60 minutes at 25° C. then was terminated by rapid removal of the incubation medium. Radioactivity was assessed using liquid scintillation spectrophotometry after exposure to scintillation cocktail for at least three hours. […] Ki values were then calculated from the Cheng-Prusoff equation. In all of the above binding studies the non-specific determinant was MDL-72222 (1.0 μM).

5-HT3 [3] = target: T2, 5-HT3; experiment: 5-HT3 inhibitor screen with potency threshold (not further specified); type: binding

Row | SMILES | Ki (5-HT3 [1]) | inhibition at 3 mg/kg (5-HT3 receptors) | further results
1 | C[C@H]1COCCN1c1nc2c(C(=O)NC3CC4CCCC(C3)N4C)cccc2o1 (stereo partly drawn) [Example 49, Endo-N-(9-Methyl-9-azabicyclo[3.3.1]nonan-3-yl)-2-((S)-3-methylmorpholino)benzoxazole-4-carboxamide Hydrochloride] |  |  | inhibition at 1 mg/kg (5-HT3 receptors): 86%
2 | Nc1nc2c(C(=O)NC3CN4CCC3CC4)cc(F)cc2o1 [Example 116, (S)—N-(Quinulidin-8-yl)-2-amino-6-fluorobenzoxazole-4-carboxamide Hydrochloride] | 9.4 nM | 97% | 
3 | Nc1nc2c(C(=O)NC3CN4CCC3CC4)cc(Cl)cc2o1 (centres unmarked) [Example 103, Hydrochloride] | 5.1 nM | 97% | 
4 | C[C@@H]1CNC[C@H](C)N1c1nc2c(C(=O)NC3CC4CCCC(C3)N4C)cccc2o1 (relative stereo) [Example 50, Endo-N-(9-Methyl-9-azabicyclo[3.3.1]nonan-3-yl)-2-((2S*,6R*)-2,6-dimethylpiperazin-1-yl)benzoxazole-4-carboxamide Hydrochloride] | 13.6 nM | 80% | 
5 | Nc1nc2c(C(=O)NC3CN4CCC3CC4)cccc2o1 [Example 93, (S)—N-(Quinulidin-8-yl)-2-aminobenzoxazole-4-carboxamide Hydrochloride] | 12.1 nM | 85% | 
6 | CN(C)c1nc2c(C(=O)N[C@@H]3CN4CCC3CC4)cccc2o1 [Example 8, (S)—N-(quinuclidine-8-yl)-2-(dimethylamino)benzoxazole-4-carboxamide Hydrochloride] |  |  | Ki (5-HT3 [1]; Assay B (method B unless otherwise annotated), read-out: 5-HT3 Ki): 18.1 nM; inhibition at 0.3 mg/kg (5-HT3 receptors): 83%
7 | CSc1nc2c(C(=O)N[C@H]3C[C@H]4CCC[C@@H](C3)N4C)cccc2o1 [Example 13, Endo-N-(9-Methyl-9-azabicyclo[3.3.1]non-3-yl)-2-methylthiobenzoxazole-4-carboxamide Hydrochloride] |  |  | Ki (5-HT3 [2]): 4.6 nM
8 | C[C@H]1CN(C)CCN1c1nc2c(C(=O)NC3CC4CCCC(C3)N4C)cccc2o1 (stereo partly drawn) [Example 55, Endo-N-(9-Methyl-9-azabicyclo[3.3.1]nonan-3-yl)-2-((S)-2,4-dimethylpiperazin-1-yl)benzoxazole-4-carboxamide Hydrochloride] | 28.8 nM |  | level of potency established as the threshold for the screen (5-HT3 [3]): has not exhibited the level of potency established as the threshold for the screen
9 | C[C@H]1COC[C@H](C)N1c1nc2c(C(=O)NC3CC4CCCC(C3)N4C)cccc2o1 (stereo partly drawn) [Example 75, Endo-N-(9-Methyl-9-azabicyclo[3.3.1]nonan-3-yl)-2-((3S,5S)-3,5-dimethylmorpholino)benzoxazole-4-carboxamide Hydrochloride] | 0.59 nM |  | inhibition at 1 mg/kg (5-HT3 receptors): 98%
10 | CSc1nc2c(C(=O)N[C@@H]3CN4CCC3CC4)cccc2o1 [Example 14, (S)—N-(quinuclidine-8-yl)-2-(methylthio)benzoxazole-4-carboxamide Hydrochloride] |  |  | Ki (5-HT3 [2]): 2.6 nM
